Experimental data published in US20040029930A1, “Fungicidal mixtures based on amide compounds” (priority 2000, published 2004).

System: Plasmopara viticola
Assay: Activity against Peronospora in grape vines caused by Plasmopara viticola (protective spray, potted vines)
Type: in vivo
Conditions: individual active ingredient, vine cultivar Müller-Thurgau
Method: The active ingredients, separately or together, are formulated as a 10% emulsion in a mixture of 63% by weight of cyclohexanone and 27% by weight of emulsifier, and diluted with water to the desired concentration.
Evaluation is carried out by determining the infected leaf areas in percent. These percentages are converted into efficacies. The efficacy (W) is calculated as follows using Abbot's formula: […]
α corresponds to the fungal infection of the treated plants in % and β corresponds to the fungal infection of the untreated (control) plants in % An efficacy of 0 means that the infection level of the treated plants corresponds to that of the untreated control plants; an efficacy of 100 means that the treated plants were not infected.
The expected efficacies of the mixtures of the active ingredients were determined using Colby's formula [R. S. Colby, Weeds 15, 20-22 (1967)] and compared with the observed efficacies.
E=x+y−x·y/100 Colby's formula
E expected efficacy, expressed in % of the untreated control, when using the mixture of the active ingredients A and B at the concentrations a and b […]
X efficacy, expressed in % of the untreated control, when using active ingredient A at a concentration of a […]
Y efficacy, expressed in % of the untreated control, when using active ingredient B at a concentration of b […]
Activity Against Peronospora in Grape Vines Caused by Plasmmopara viticola […]
Leaves of potted vines of the cultivar “Müller-Thurgau” were sprayed to runoff point with an aqueous preparation of active ingredient which had been prepared using a stock solution comprising 10% of active ingredient, 85% of cyclohexanone and 5% of emulsifier. The next day, the undersides of the leaves were inoculated with an aqueous zoospore suspension of Plasmopara viticola. The vines were then placed firstly for 48 hours in a water-vapor-saturated chamber at 24° C. and then for 5 days in a greenhouse at 20-30° C. After this period of time, the plants were again placed in a moist chamber for 16 hours to accelerate the sporangiophore eruption. The extent to which the undersides of the leaves had been infected was then determined visually.

Cc1ccc(-c2c(Cl)nc(C#N)n2S(=O)(=O)N(C)C)cc1 [cyazofamid]
Efficacy in % of the untreated control (1 ppm in the spray liquor): 73%
Efficacy in % of the untreated control (4 ppm in the spray liquor): 79%
Efficacy in % of the untreated control (8 ppm in the spray liquor): 84%
Efficacy in % of the untreated control (16 ppm in the spray liquor): 89%
